Measurements: patent US20250353891A1 (MEDIMMUNE LIMITED, priority 2022, published 2025)
Starred links: 1 amine or outer side, 2 acyl side, 3 side chain; linkers in the order of their positions; H or OH if unused. Non-standard residues stand in square brackets, D forms with d. Residues, ends and D or L forms follow the SMILES beside them. Groups on a side chain read outwards from the residue. *: point of attachment. C18 diacid = O=C(O)CCCCCCCCCCCCCCCCC(=O)*; γGlu = O=C(O)[C@H](CCC(=O)[*:2])N[*:1]; αMeF = C[C@](N)(Cc1ccccc1)C(=O)O; AEEA = NCCOCCOCC(=O)O; Aib = CC(C)(N)C(=O)O

Tests used:
[1] = target: human glucagon receptor (hGCGR) (Homo sapiens, UniProt P47871); assay: cAMP production (HTRF) in CHO cells expressing hGCGR; type: cell-based; design: expressed in transfected cells; details: Table 6, peptides modified at position 17; cAMP in CHO hGCGR cells; geometric mean; read-out: hGluc-R EC50
Chain of human glucagon receptor (hGCGR) (P47871 26-477): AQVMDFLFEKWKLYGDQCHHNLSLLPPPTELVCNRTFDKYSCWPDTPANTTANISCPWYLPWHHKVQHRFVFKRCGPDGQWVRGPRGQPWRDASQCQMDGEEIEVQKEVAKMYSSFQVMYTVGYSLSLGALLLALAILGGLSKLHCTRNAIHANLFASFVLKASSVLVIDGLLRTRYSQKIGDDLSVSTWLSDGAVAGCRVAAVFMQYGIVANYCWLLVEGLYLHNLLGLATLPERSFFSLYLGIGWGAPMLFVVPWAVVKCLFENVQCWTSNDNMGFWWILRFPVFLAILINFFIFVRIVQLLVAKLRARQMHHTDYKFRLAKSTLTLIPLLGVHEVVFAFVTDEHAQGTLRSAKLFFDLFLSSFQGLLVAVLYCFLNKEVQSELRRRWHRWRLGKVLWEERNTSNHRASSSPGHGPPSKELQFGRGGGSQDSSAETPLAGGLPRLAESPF
How it was run: (§1)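 Potency values represent EC50 from 4-parameter logistic curves of HTRF % Delta F signal. Receptor-expressing CHO cells (hGCGR 2×10^5 cells/mL, hGLP-1R 1×10^5 cells/mL) were exposed for 30 min at room temperature before two-step cAMP detection.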

[2] = target: human GLP-1 receptor (hGLP-1R) (Homo sapiens, UniProt P43220); assay: cAMP production (HTRF) in CHO cells expressing hGLP-1R; type: cell-based; design: expressed in transfected cells; details: for EC50: Table 6, peptides modified at position 17, cAMP in CHO hGLP-1R cells, geometric mean, read-out: hGLP-1R EC50; for % Relative Potency Ratio: Table 6, % GLP-1R activity relative to GLP-1 / % GlucR activity relative to glucagon
Chain of human GLP-1 receptor (hGLP-1R) (P43220 24-463): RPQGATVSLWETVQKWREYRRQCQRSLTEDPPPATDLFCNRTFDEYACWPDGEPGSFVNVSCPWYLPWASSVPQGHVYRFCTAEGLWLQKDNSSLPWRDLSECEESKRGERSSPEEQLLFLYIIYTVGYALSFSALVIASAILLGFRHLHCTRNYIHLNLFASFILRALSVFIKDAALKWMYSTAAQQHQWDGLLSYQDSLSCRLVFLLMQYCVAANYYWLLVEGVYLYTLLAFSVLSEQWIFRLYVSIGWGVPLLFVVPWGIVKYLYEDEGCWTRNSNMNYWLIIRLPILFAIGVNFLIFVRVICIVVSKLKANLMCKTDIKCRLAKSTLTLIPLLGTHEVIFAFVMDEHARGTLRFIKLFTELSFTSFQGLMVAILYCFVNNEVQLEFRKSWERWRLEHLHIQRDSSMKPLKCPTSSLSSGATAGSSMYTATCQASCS
How it was run: as §1

CC(C)C[C@H](NC(=O)[C@H](Cc1c[nH]c2ccccc12)NC(=O)[C@H](CCCNC(=N)N)NC(=O)[C@@H](NC(=O)[C@H](Cc1ccccc1)NC(=O)[C@H](CC(=O)O)NC(=O)[C@H](CCC(N)=O)NC(=O)[C@H](C)NC(=O)[C@H](CCCNC(=N)N)NC(=O)[C@H](CCCCNC(=O)COCCOCCNC(=O)COCCOCCNC(=O)CC[C@H](NC(=O)CCCCCCCCCCCCCCCCC(=O)O)C(=O)O)NC(=O)[C@H](CO)NC(=O)[C@H](CC(=O)O)NC(=O)[C@H](CC(C)C)NC(=O)[C@](C)(Cc1ccccc1)NC(=O)[C@H](CCCCN)NC(=O)[C@H](CO)NC(=O)[C@@H](NC(=O)[C@H](CC(=O)O)NC(=O)[C@H](CO)NC(=O)[C@@H](NC(=O)[C@H](Cc1ccccc1)NC(=O)[C@@H](NC(=O)CNC(=O)[C@H](CCC(N)=O)NC(=O)C(C)(C)NC(=O)[C@@H](N)Cc1c[nH]cn1)[C@@H](C)O)[C@@H](C)O)C(C)C)C(C)C)C(=O)N[C@@H](CC(C)C)C(=O)N[C@@H](CCC(=O)O)C(=O)NC(C)(C)C(=O)NCC(=O)O [Peptide 31] (H-H[Aib]QGTFTSDVSK[αMeF]LDSK([AEEA-AEEA-γGlu-C18 diacid])RAQDFVRWLLE[Aib]G-OH; N-terminus assumed)
EC50 [1]: 0.0568 nM
EC50 [2]: 0.0413 nM
% Relative Potency Ratio [2]: 2.7

CC[C@H](C)[C@H](NC(=O)[C@H](Cc1c[nH]c2ccccc12)NC(=O)[C@H](CCC(N)=O)NC(=O)[C@@H](NC(=O)[C@H](Cc1ccccc1)NC(=O)[C@H](CC(=O)O)NC(=O)C(C)(C)NC(=O)[C@H](C)NC(=O)[C@H](CCCNC(=N)N)NC(=O)[C@H](CCCCNC(=O)CC[C@H](NC(=O)CCCCCCCCCCCCCCCCC(=O)O)C(=O)O)NC(=O)[C@H](CO)NC(=O)[C@H](CC(=O)O)NC(=O)[C@H](CC(C)C)NC(=O)[C@](C)(Cc1ccccc1)NC(=O)[C@H](CCCCN)NC(=O)[C@H](CO)NC(=O)[C@@H](NC(=O)[C@H](CC(=O)O)NC(=O)[C@H](CO)NC(=O)[C@@H](NC(=O)[C@H](Cc1ccccc1)NC(=O)[C@@H](NC(=O)CNC(=O)[C@H](CCC(N)=O)NC(=O)C(C)(C)NC(=O)[C@@H](N)Cc1c[nH]cn1)[C@@H](C)O)[C@@H](C)O)C(C)C)C(C)C)C(=O)N[C@@H](C)C(=O)N[C@@H](CC(N)=O)C(=O)N[C@H](C(N)=O)[C@@H](C)O [Peptide 32] (H-H[Aib]QGTFTSDVSK[αMeF]LDSK([γGlu-C18 diacid])RA[Aib]DFVQWIANT-NH2; N-terminus assumed)
EC50 [1]: 0.24 nM
EC50 [2]: 0.013 nM
% Relative Potency Ratio [2]: 36.7

CC(C)C[C@H](NC(=O)[C@H](Cc1c[nH]c2ccccc12)NC(=O)[C@H](CCC(N)=O)NC(=O)[C@@H](NC(=O)[C@H](Cc1ccccc1)NC(=O)[C@H](CC(=O)O)NC(=O)[C@H](CCC(N)=O)NC(=O)[C@H](C)NC(=O)[C@H](CCCNC(=N)N)NC(=O)[C@H](CCCCNC(=O)COCCOCCNC(=O)COCCOCCNC(=O)CC[C@H](NC(=O)CCCCCCCCCCCCCCCCC(=O)O)C(=O)O)NC(=O)[C@H](CO)NC(=O)[C@H](CC(=O)O)NC(=O)[C@H](CC(C)C)NC(=O)[C@](C)(Cc1ccccc1)NC(=O)[C@H](CCCCN)NC(=O)[C@H](CO)NC(=O)[C@@H](NC(=O)[C@H](CC(=O)O)NC(=O)[C@H](CO)NC(=O)[C@@H](NC(=O)[C@H](Cc1ccccc1)NC(=O)[C@@H](NC(=O)CNC(=O)[C@H](CCC(N)=O)NC(=O)C(C)(C)NC(=O)[C@@H](N)Cc1c[nH]cn1)[C@@H](C)O)[C@@H](C)O)C(C)C)C(C)C)C(=O)N[C@@H](CCC(=O)O)C(=O)NC(C)(C)C(=O)N[C@H](C(=O)O)[C@@H](C)O [Peptide 33] (H-H[Aib]QGTFTSDVSK[αMeF]LDSK([AEEA-AEEA-γGlu-C18 diacid])RAQDFVQWLE[Aib]T-OH)
EC50 [1]: 0.548 nM
EC50 [2]: 0.213 nM
% Relative Potency Ratio [2]: 5.1

CC(C)C[C@H](NC(=O)[C@H](Cc1c[nH]c2ccccc12)NC(=O)[C@H](CCC(N)=O)NC(=O)[C@@H](NC(=O)[C@H](Cc1ccccc1)NC(=O)[C@H](CC(=O)O)NC(=O)[C@H](CCC(N)=O)NC(=O)[C@H](C)NC(=O)[C@H](CCCNC(=N)N)NC(=O)[C@H](CCCCNC(=O)COCCOCCNC(=O)COCCOCCNC(=O)CC[C@H](NC(=O)CCCCCCCCCCCCCCCCC(=O)O)C(=O)O)NC(=O)[C@H](CO)NC(=O)[C@H](CC(=O)O)NC(=O)[C@H](CC(C)C)NC(=O)[C@](C)(Cc1ccccc1)NC(=O)[C@H](CCCCN)NC(=O)[C@H](CO)NC(=O)[C@@H](NC(=O)[C@H](CC(=O)O)NC(=O)[C@H](CO)NC(=O)[C@@H](NC(=O)[C@H](Cc1ccccc1)NC(=O)[C@@H](NC(=O)CNC(=O)[C@H](CCC(N)=O)NC(=O)C(C)(C)NC(=O)[C@@H](N)Cc1c[nH]cn1)[C@@H](C)O)[C@@H](C)O)C(C)C)C(C)C)C(=O)N[C@@H](CC(C)C)C(=O)NC(C)(C)C(=O)N[C@@H](CCC(=O)O)C(=O)O [Peptide 34] (H-H[Aib]QGTFTSDVSK[αMeF]LDSK([AEEA-AEEA-γGlu-C18 diacid])RAQDFVQWLL[Aib]E-OH; N-terminus assumed)
EC50 [1]: 0.161 nM
EC50 [2]: 0.0824 nM
% Relative Potency Ratio [2]: 3.9

CC(C)C[C@H](NC(=O)[C@H](Cc1c[nH]c2ccccc12)NC(=O)[C@H](CCC(N)=O)NC(=O)[C@@H](NC(=O)[C@H](Cc1ccccc1)NC(=O)[C@H](CC(=O)O)NC(=O)[C@H](CCC(N)=O)NC(=O)[C@H](C)NC(=O)[C@H](CCCNC(=N)N)NC(=O)[C@H](CCCCNC(=O)COCCOCCNC(=O)COCCOCCNC(=O)CC[C@H](NC(=O)CCCCCCCCCCCCCCCCC(=O)O)C(=O)O)NC(=O)[C@@H](NC(=O)[C@H](CC(=O)O)NC(=O)[C@H](CC(C)C)NC(=O)[C@](C)(Cc1ccccc1)NC(=O)[C@H](CCCCN)NC(=O)[C@H](CO)NC(=O)[C@@H](NC(=O)[C@H](CC(=O)O)NC(=O)[C@H](CO)NC(=O)[C@@H](NC(=O)[C@H](Cc1ccccc1)NC(=O)[C@@H](NC(=O)CNC(=O)[C@H](CCC(N)=O)NC(=O)C(C)(C)NC(=O)[C@@H](N)Cc1c[nH]cn1)[C@@H](C)O)[C@@H](C)O)C(C)C)[C@@H](C)O)C(C)C)C(=O)N[C@@H](CC(C)C)C(=O)NC(C)(C)C(=O)N[C@H](C(=O)O)[C@@H](C)O [Peptide 35] (H-H[Aib]QGTFTSDVSK[αMeF]LDTK([AEEA-AEEA-γGlu-C18 diacid])RAQDFVQWLL[Aib]T-OH; N-terminus assumed)
EC50 [1]: 0.335 nM
EC50 [2]: 0.0837 nM
% Relative Potency Ratio [2]: 7.9

CC(C)C[C@H](NC(=O)[C@H](Cc1c[nH]c2ccccc12)NC(=O)[C@H](CCC(N)=O)NC(=O)[C@@H](NC(=O)[C@H](Cc1ccccc1)NC(=O)[C@H](CC(=O)O)NC(=O)[C@H](CCCNC(=N)N)NC(=O)[C@H](C)NC(=O)[C@H](CCCNC(=N)N)NC(=O)[C@H](CCCCNC(=O)COCCOCCNC(=O)COCCOCCNC(=O)CC[C@H](NC(=O)CCCCCCCCCCCCCCCCC(=O)O)C(=O)O)NC(=O)[C@H](CO)NC(=O)[C@H](CC(=O)O)NC(=O)[C@H](CC(C)C)NC(=O)[C@](C)(Cc1ccccc1)NC(=O)[C@H](CCCCN)NC(=O)[C@H](CO)NC(=O)[C@@H](NC(=O)[C@H](CC(=O)O)NC(=O)[C@H](CO)NC(=O)[C@@H](NC(=O)[C@H](Cc1ccccc1)NC(=O)[C@@H](NC(=O)CNC(=O)[C@H](CCC(N)=O)NC(=O)C(C)(C)NC(=O)[C@@H](N)Cc1c[nH]cn1)[C@@H](C)O)[C@@H](C)O)C(C)C)C(C)C)C(=O)N[C@@H](CC(C)C)C(=O)NC(C)(C)C(=O)N[C@H](C(=O)O)[C@@H](C)O [Peptide 36] (H-H[Aib]QGTFTSDVSK[αMeF]LDSK([AEEA-AEEA-γGlu-C18 diacid])RARDFVQWLL[Aib]T-OH; N-terminus assumed)
EC50 [1]: 0.278 nM
EC50 [2]: 0.0431 nM
% Relative Potency Ratio [2]: 12.8
